Source: PMC11955804, “Histidine-rich enantiomeric peptide coacervates enhance antigen sequestration and presentation to T cells” (Chemical Science, 2025)

Columns and labels:
[1] = Optical microscopy of coacervate formation (LLPS); format: physicochemical; conditions: optical microscopy, 1× PBS; across multiple synthesis batches
From the text: NaCl) was used to study ionic strength effects. The absorbance was further converted to turbidity using methods previously described 1 and data was plotted as relative turbidity.
Optical microscopy and dynamic light scattering (DLS)
Droplets were visualized in 1×PBS using NCI Leica DMC4500 microscope in reflection mode with differential interference contrast. Images were captured with a DMC4500 camera under the control of Leica LAS X software (version 3.4.2). […]

[2] = system: CD55 expression in A549 cells; experiment: CRISPR/Cas9 RNP delivery, CD55 knockdown by flow cytometry; format: cell-based; conditions: 3 days, enantiomeric coacervates
Protocol: complexed with lipofectamine 2000 (3.2 µL) served as controls. GFP expression was assessed qualitatively after 96 h using a Lionheart FX automated microscope (BioTek Instruments, Inc.).
We employed TrueCut Cas9 protein for the knockout of CD55 gene using CRISPR technology, aided with chiral (GHGXY)4 peptide coacervates. The transfection of the Cas9 RNPs (protein + gRNA) was done according to manufacturer’s protocol (Invitrogen). Briefly, A549 cells were cultured in complete DMEM media (supplemented with 10% FBS and 5% Pen Strep) in T-75 flask till full confluency. Cells were then plated at a concentration of 2×10^4 cells/mL in 24 well […]
plates in DMEM media for 24 h. […]
confluent. For positive control, we mixed the TrueCutTM Cas9 protein/sgRNA in Opti-MEM media (17.8 μL) at a concentration of 12.50 μg (75 pmol; Stock 0.5 mg/mL) and 2.4 μg (75 pmol; Stock 1 nmol) for protein and sgRNA respectively, containing 50 μL LipofectamineTM Cas 9 PlusTM reagent (Total Volume: 100 μL) in a RNAse -free microcentrifuge tube. […]
(DAF) Antibody (anti-human; miltenyibiotec Cat#130-126-382). […] Data were analyzed with FlowJo version 10. […] was quantified as the percentage CD55+ cells, considering untreated cells as the negative control and Lipofectamine treated ones as the positive control. […]

| coacervate formation [1] | Substance | delivery of Cas9 RNP complex / decrease in CD55 expression on the cell surface [2] |
| --- | --- | --- |
| Consistent coacervate formation | (GHGLY)4 [GL 20] | not highly effective |
| Consistent coacervate formation | (GHGVY)4 [GV 20] | successfully delivered the RNP complex |
